Test results reported in patent publication US20170210757A1 (ALFA WASSERMANN S.P.A., priority 2003, published 2017).
Like-named read-outs stand apart in the source and are kept apart here.

Tests used:
[1] = Hygroscopicity and humidity-dependent transition between polymorphic forms; format: physicochemical; conditions: for hygroscopicity: reversibly absorb water under suitable conditions of pressure and humidity
Source text: Both the form γ and the forms α and β of rifaximin are hygroscopic, they reversibly absorb water in time in the presence of suitable environmental conditions of pressure and humidity and are susceptible of transformation from one form into another.

[2] = Intrinsic dissolution test (USP 27 monograph 1087); format: physicochemical
Source text: The die-holder containing the compacted pellet has then been mounted on a laboratory stirring device, immersed in a dissolution medium and rotated by means of the stirring device.
A compacted pellet was formed in the die with a single face of defined area exposed on the bottom of the die so that from 50% to 75% of the compacted pellet could dissolve in an appropriate dissolution medium.
The holder containing the die was mounted on a laboratory stirring device, immersed in a glass vessel containing a dissolution medium and rotated at a rotation speed of 100 rpm by means of the stirring device, while keeping the temperature of the dissolution medium at 37±0.5° C. […]

[3] = Bioavailability in dogs by oral route (plasma rifaximin by LC-MS/MS); format: in vivo, Beagle female dogs
Description: Twelve 20 week pure-bred Beagle females dogs, and weighing between 5.0 and 7.5 kg, have been divided into three groups of four.
Each sample was transferred into an heparinized tube and was centrifuged; the plasma was divided into 50μl two aliquots and frozen at −20° C.
Tmax=time at which the Cmax is reached;
AUC=area under the concentration-time curve calculated through the linear trapezoidal rule.

[4] = single oral administration of 100 mg/kg by capsules to female dogs, plasma, listed as Polimorph α, 100 mg/kg
[5] = single oral administration of 100 mg/kg by capsules to female dogs, plasma, listed as Polimorph β, 100 mg/kg
[6] = single oral administration of 100 mg/kg by capsules to female dogs, plasma, listed as Polimorph γ, 100 mg/kg

CO[C@H]1/C=C/O[C@@]2(C)Oc3c(C)c(O)c4c(O)c(c5c(nc6cc(C)ccn65)c4c3C2=O)NC(=O)/C(C)=C\C=C\[C@H](C)[C@H](O)[C@@H](C)[C@@H](O)[C@@H](C)[C@H](OC(C)=O)[C@@H]1C [rifaximin α, rifaximin]
solid form transition under humidity ([1]; relative humidity higher than 50% for 12 to 48 hours): changes into the polymorphic form β
hygroscopicity [1]: hygroscopic
disintegration of the compacted pellet (time) ([2]; phosphate buffer pH 7.4, 37°C, with sodium lauryl sulfate, also at 0.1% and 0.3% and without surfactant): ≤ 10 min
Cmax ([3]; Beagle, dog, plasma, oral, 100 mg/kg, pharmaceutical composition comprising the polymorphic form, conditions not stated, read-out: Cmax (summary embodiment)): ~2 ng/mL
Tmax ([3]; female, Beagle, dog, plasma, po, 100 mg/kg, single oral administration of 100 mg/kg by capsules to female dogs): 9.5 h
AUC0-24 h (summary embodiment) ([3]; pharmaceutical composition comprising the polymorphic form, conditions not stated, listed as rifaximin in polymorphic form α): about 13 ng·h/ml
AUC0-24 Mean [3, 4]: 13 ng·h/mL
Cmax Mean [3, 4]: 2.632 ng/mL

CO[C@H]1/C=C/O[C@@]2(C)Oc3c(C)c(O)c4c(O)c(c5c(nc6cc(C)ccn65)c4c3C2=O)NC(=O)/C(C)=C\C=C\[C@H](C)[C@H](O)[C@@H](C)[C@@H](O)[C@@H](C)[C@H](OC(C)=O)[C@@H]1C [rifaximin β, rifaximin]
hygroscopicity [1]: hygroscopic
Intrinsic dissolution rate ([2]; 0.1M aqueous phosphate buffer pH 7.4 with 0.45% sodium lauryl sulfate, 37°C, listed as β polymorph): 0.0147 mg/min/cm^2
Rifaximin dissolved ([2]; 15 min, 0.1M aqueous phosphate buffer pH 7.4 with 0.45% sodium lauryl sulfate, 37°C, listed as β polymorph): 0.28 mg/cm^2
Rifaximin dissolved ([2]; 30 min, 0.1M aqueous phosphate buffer pH 7.4 with 0.45% sodium lauryl sulfate, 37°C, listed as β polymorph): 0.50 mg/cm^2
Rifaximin dissolved ([2]; 45 min, 0.1M aqueous phosphate buffer pH 7.4 with 0.45% sodium lauryl sulfate, 37°C, listed as β polymorph): 0.71 mg/cm^2
Rifaximin dissolved ([2]; 60 min, 0.1M aqueous phosphate buffer pH 7.4 with 0.45% sodium lauryl sulfate, 37°C, listed as β polymorph): 0.94 mg/cm^2
intrinsic dissolution rate (summary embodiment) ([2]; pharmaceutical composition comprising the polymorphic form, conditions not stated): about 0.01 mg/min/cm^2
AUC0-24 h (summary embodiment) ([3]; pharmaceutical composition comprising the polymorphic form, conditions not stated, listed as rifaximin in polymorphic form β): about 11 ng·h/ml
AUC0-24 Mean [3, 5]: 11 ng·h/mL
tmax Mean [3, 5]: 4 h

CO[C@H]1/C=C/O[C@@]2(C)Oc3c(C)c(O)c4c(O)c(c5c(nc6cc(C)ccn65)c4c3C2=O)NC(=O)/C(C)=C\C=C\[C@H](C)[C@H](O)[C@@H](C)[C@@H](O)[C@@H](C)[C@H](OC(C)=O)[C@@H]1C [rifaximin γ, rifaximin]
hygroscopicity [1]: hygroscopic
Cmax ([3]; female, Beagle, dog, plasma, po, 100 mg/kg, oral 100 mg/kg, Beagle female dogs, read-out: Cmax): 668 ng/mL
absorption in respect of rifaximin α and rifaximin β ([3]; oral 100 mg/kg, Beagle female dogs): more than 102 times
AUC0-24 h (summary embodiment) ([3]; pharmaceutical composition comprising the polymorphic form, conditions not stated, listed as rifaximin in polymorphic form γ): about 4000 ng·h/ml
AUC0-24 Mean [3, 6]: 3908 ng·h/mL
Cmax Mean [3, 6]: 668.22 ng/mL
